Legend:
[1] = test system: gerbil colon; test: smooth muscle stimulatory effect on the gerbil colon in vivo; parameters: species or system mongolian gerbils; details: i.v., same dose range (from 40 mg/kg)
Description: This example illustrates the smooth muscle stimulatory effect of esters of this invention on the gerbil colon in vivo.
The experiments are performed with mongolian gerbils, anesthetized with pentobarbital, 50 mg/kg. The ascending colon is exposed and carefully stretched between silk thread loops and a strain-gauge transducer.
After a stable base-line has been established an ester of this invention, sodium bis (4-(3-oxo-3-(2,4,6-trihydroxyphenyl)-propyl)phenyl) phosphate is infused i.v.
In doses from 40 mg/kg this treatment causes the gut to respond with a series of contractions.

[2] = test system: prostaglandins E1, E2 F1α and F2α; test: PG-inhibitory effect on the isolated gerbil colon; type: cell-based, Gerbils (Meriones unguiculatus); details: gerbil colon
Description: The PG-inhibitory effect of esters of the present invention on the gerbil colon are determined using the general technique described by Eakins, Miller & Karim (J. Pharm. Exp. Ther. 176:441, 1971). Gerbils (Meriones unguiculatus) of own breed, both sexes, weighing 50-80 g are used. The animal is stunned, colon ascendens immediately removed, and a 2-3 cm piece mounted in a 6 ml bath containing a modified de Jalon solution at 28° C and continuously oxygenated. Contractions of the organ are registered either isotonically or isometrically. When testing the inhibitory effect of a compound this is added to the bath 2 min before the addition of prostaglandin. […] Several concentrations of each antagonist are used.

[3] = test system: Slow Reacting Substance (SRS); test: antagonism to Slow Reacting Substance on the isolated guinea-pig ileum (Mathe & Strandberg); type: cell-based
Description: The antagonism to Slow Reacting Substance (SRS) is determined on the isolated guinea-pig ileum as described by Mathe & Strandberg (Acta physiol. scand. 82:460, 1971). Purified SRS is obtained from cat paws perfused with compound 48/80 (Strandberg & Uvnas: Acta physiol. scand. 82:358, 1971). Sodium bis(4-(3-oxo-3-(2,4,6-trihydroxyphenyl)propyl)phenyl) phosphate was tested in this system in several concentrations.

[4] = test system: PGE1; test: prostaglandin-stimulated glycolysis of the prepubertal ovary (lactic acid production); type: cell-based, rats; details: compared with the compound giving 50% reduction at 50-100 μg/ml
Description: The action of esters of the present invention on the prostaglandin-stimulated glycolysis of the prepubertal ovary is investigated. The method used has been described in detail by Perklev & Ahren (Life Sciences Part I, 10:1387, 1971). In these experiments ovaries from prepubertal rats are removed and placed in Erlenmeyer flasks containing compounds of this invention dissolved in Krebs biocarbonate buffer. After that the ovaries have been preincubated during 60 min. at 37° C in this medium, they are blotted on filter paper and then washed for 2 min. in plain buffer. The ovaries are then transferred to a new incubation medium containing prostaglandins (PG) dissolved in Krebs bicarbonate buffer and incubated at 37° C for 2 hrs with continuous shaking. The ovarian glycolysis is then determined by measuring the concentration of lactic acid in the incubation medium. When polyphloretin phosphate (PPP) is present in the preincubation medium in a concentration of 500 μg/ml, the subsequent ovarian lactic acid production produced by PGE1 is reduced to about 50% of that obtained with ovaries preincubated in plain buffer. When sodium bis(4-(3-(2,4,6-trihydroxyphenyl)propyl)phenyl)phosphate is investigated in the same experimental system, a 50% reduction of the lactate production is seen when only 50-100 μg/ml of the compound is present in the preincubation medium.

| Compound | contraction of the colon [1] | selective inhibitory effects compared with PPP [2] | inhibition of SRS [3] | prostaglandin inhibiting activity [4] |
| --- | --- | --- | --- | --- |
| O=C(CCc1ccc(OP(=O)([O-])Oc2ccc(CCC(=O)c3ccc(O)cc3O)cc2)cc1)c1ccc(O)cc1O.[Na+] [Sodium bis(4-(3-(2,4-dihydroxyphenyl)-3-oxopropyl)phenyl) phosphate] | give contraction in the same dose range | equal to or superior to that of PPP | inhibit SRS | same order |
| O=C(CCCc1ccc(OP(=O)([O-])Oc2ccc(CCCC(=O)c3ccc(O)cc3O)cc2)cc1)c1ccc(O)cc1O.[Na+] [sodium bis(4-(4-(2,4-dihydroxyphenyl)-4-oxobutyl)phenyl) phosphate] |  | equal to or superior to that of PPP | inhibit SRS | same order |
| COc1ccc(CCC(=O)c2c(O)cccc2O)cc1OP(=O)([O-])Oc1cc(CCC(=O)c2c(O)cccc2O)ccc1OC.[Na+] [sodium bis(5-(3-(2,6-dihydroxyphenyl)-3-oxopropyl)-2-methoxyphenyl)phosphate] |  | equal to or superior to that of PPP | inhibit SRS | same order |
| O=C([O-])Cc1ccc(C(=O)CCc2cccc(OP(=O)([O-])Oc3cccc(CCC(=O)c4ccc(CC(=O)[O-])cc4)c3)c2)cc1.[Na+].[Na+].[Na+] [trisodium bis(3-(3-(4-carboxylatomethylphenyl)-3-oxopropyl)phenyl) phosphate] |  | equal to or superior to that of PPP | inhibit SRS | same order |
| O=C([O-])c1ccc(CCC(=O)c2cccc(OP(=O)([O-])Oc3cccc(C(=O)CCc4ccc(C(=O)[O-])cc4)c3)c2)cc1.[Na+].[Na+].[Na+] [trisodium bis(3-(3-(4-carboxylatophenyl)propionyl)phenyl) phosphate] |  | equal to or superior to that of PPP | inhibit SRS | same order |
| O=C([O-])COc1cccc(C(=O)CCc2ccc(OP(=O)([O-])Oc3ccc(CCC(=O)c4cccc(OCC(=O)[O-])c4)cc3)cc2)c1.[Na+].[Na+].[Na+] [trisodium bis(4-(3-(3-(carboxylatomethoxy)phenyl)-3-oxopropyl)-phenyl) phosphate] |  | equal to or superior to that of PPP | inhibit SRS | same order |
| COc1ccc(C(=Cc2ccc(C(=O)[O-])cc2)C(=O)c2ccc(OP(=O)([O-])Oc3ccc(C(=O)C(=Cc4ccc(C(=O)[O-])cc4)c4ccc(OC)cc4)c(OC)c3)cc2OC)cc1.[Na+].[Na+].[Na+] [trisodium bis(4-(3-(4-carboxylatophenyl)-2-(4-methoxy-phenyl)-acryloyl)-3-methoxyphenyl) phosphate] |  | equal to or superior to that of PPP | inhibit SRS | same order |
